Results taken from the supplement of paper PMC10331698.
± gives the standard deviation of the averaged measurements.

Columns and labels:
Assay in all cases: level (log10 ratio to DMSO vehicle control); higher = higher biomarker level / cell amount than vehicle control
Conditions in all cases: in DMSO
[1] = compound: FC(F)(F)C(F)(C(F)(F)F)C(F)(F)C(F)(F)CC1CO1 [3-(Perfluoro-3-methylbutyl)-1,2-propenoxide]
Experimental: (§1)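 BioMAP Diversity Plus panel of 12 human primary cell co-culture systems (3C, 4H, LPS, SAg, BT, BF4T, BE3C, CASM3C, HDF3CGF, KF3CT, MyoF, Mphg). Compounds were added 1 h before stimulation and left for 24 h (MyoF 48 h; BT 72 h for soluble read-outs or 6 d for IgG). Biomarkers were read by ELISA, cytotoxicity by SRB, PBMC viability and proliferation by Alamar Blue. Each well value was divided by the mean of 8 DMSO control wells on the same plate and log10 transformed; duplicate blinded samples were tested at 4 concentrations.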

[2] = compound: FC(F)(F)C(F)(F)C(F)(F)C(F)(F)C(F)(F)C(F)(F)C(F)(F)C(F)(F)CCS [2-(Perfluorooctyl)ethanthiol]
Experimental: as §1

Perfluoroheptanoic acid = compound: O=C(O)C(F)(F)C(F)(F)C(F)(F)C(F)(F)C(F)(F)C(F)(F)F [Perfluoroheptanoic acid]
Experimental: as §1

Perfluoropentanoic acid = compound: O=C(O)C(F)(F)C(F)(F)C(F)(F)C(F)(F)F [Perfluoropentanoic acid]
Experimental: as §1

[3] = compound: O=C(O)C(F)(F)C(F)(F)C(F)F [4H-Perfluorobutanoic acid]
Experimental: as §1

[4] = compound: O=C(O)C(F)(F)C(F)(F)OC(F)(F)F [Perfluoro-3-methoxypropanoic acid]
Experimental: as §1

[5] = compound: OCC(F)(F)OC(F)(F)C(F)(F)OC(F)(F)CO [1H,1H,8H,8H-Perfluoro-3,6-dioxaoctane-1,8-diol]
Experimental: as §1

Test System | level (log10) ([1]; 6700 nM) | level (log10) ([1]; 20000 nM) | level (log10) ([2]; 6700 nM) | level (log10) ([2]; 20000 nM) | level (log10) (Perfluoroheptanoic acid; 6700 nM) | level (log10) (Perfluoroheptanoic acid; 20000 nM) | level (log10) (Perfluoroheptanoic acid; 60000 nM) | level (log10) (Perfluoropentanoic acid; 6700 nM) | level (log10) (Perfluoropentanoic acid; 20000 nM) | level (log10) (Perfluoropentanoic acid; 60000 nM) | level (log10) ([3]; 6700 nM) | level (log10) ([3]; 20000 nM) | level (log10) ([3]; 60000 nM) | level (log10) ([4]; 6700 nM) | level (log10) ([4]; 20000 nM) | level (log10) ([4]; 60000 nM) | level (log10) ([5]; 6700 nM) | level (log10) ([5]; 20000 nM) | level (log10) ([5]; 60000 nM)
3C:CD141/Thrombomodulin | -0.001 ± 0.017 | -0.0245 ± 0.018 | 0.0105 ± 0.0078 | -0.042 ± 0.05 | 0.0185 ± 0.0035 | 0.0035 ± 0.00071 | 0.0205 ± 0.0021 | 0.024 ± 0.021 | 0.0345 ± 0.005 | 0.0685 ± 0.042 | -0.0285 ± 0.0078 | -0.008 ± 0.013 | 0.0035 ± 0.0035 | 0.0005 ± 0.087 | -0.0245 ± 0.036 | -0.0215 ± 0.023 | -0.003 ± 0.013 | -0.0075 ± 0.015 | 0.01 ± 0.0085
HDF3CGF:Collagen III | -0.0295 ± 0.049 | -0.049 ± 0.081 | 0.0005 ± 0.033 | 0.002 ± 0.035 | -0.021 ± 0.011 | -0.0385 ± 0.033 | -0.013 ± 0.016 | 0.005 ± 0.014 | 0.01 ± 0.017 | 0.033 ± 0.034 | -0.005 ± 0.088 | 0.03 ± 0.054 | 0.072 ± 0.042 | -0.0025 ± 0.0078 | 0.009 ± 0.024 | 0.039 ± 0.05 | -0.0035 ± 0.0078 | -0.0105 ± 0.0078 | 0.0165 ± 0.05
lMphg:SRB | -0.007 ± 0.014 | -0.0045 ± 0.0078 | -0.008 ± 0.0014 | -0.011 ± 0.013 | -0.013 ± 0.02 | -0.01 ± 0.0028 | -0.002 ± 0.0014 | -0.0125 ± 0.0035 | -0.0065 ± 0.0092 | 0.01 ± 0.018 | -0.0035 ± 0.019 | -0.005 ± 0.0057 | 0.0025 ± 0.0021 | -0.006 ± 0.0014 | -0.0185 ± 0.005 | 0 ± 0.0028 | -0.028 ± 0.021 | 0.015 | -0.0375 ± 0.0021
HDF3CGF:CCL2/MCP-1 | -0.0175 ± 0.022 | -0.004 ± 0.0099 | -0.0505 ± 0.03 | -0.077 ± 0.014 | -0.0085 ± 0.0064 | 0.0135 ± 0.00071 | 0.0115 ± 0.016 | -0.03 ± 0.017 | -0.054 ± 0.013 | -0.022 ± 0.048 | -0.0385 ± 0.021 | -0.018 ± 0.051 | 0.049 ± 0.0071 | -0.002 ± 0.0071 | -0.0055 ± 0.00071 | 0.0085 ± 0.022 | 0.0015 ± 0.0092 | 0.0025 ± 0.012 | 0.026 ± 0.047
CASM3C:CXCL8/IL-8 | -0.0065 ± 0.005 | -0.003 ± 0.0014 | 0.021 ± 0.047 | 0.034 ± 0.037 | -0.0085 ± 0.0064 | -0.002 ± 0.0042 | 0.046 ± 0.018 | -0.01 ± 0.0085 | -0.019 ± 0.011 | -0.0015 ± 0.013 | -0.003 ± 0.0057 | 0.004 ± 0.0042 | 0.0135 ± 0.033 | 0.0045 ± 0.03 | 0.006 ± 0.03 | 0.033 ± 0.0028 | 0.0045 ± 0.0064 | -0.002 ± 0.0028 | 0.0125 ± 0.013
MyoF:TIMP-1 | -0.0165 ± 0.022 | -0.047 ± 0.052 | -0.033 ± 0.014 | -0.0215 ± 0.005 | -0.011 ± 0.0042 | 0.0225 ± 0.0021 | 0.0515 ± 0.0064 | -0.0195 ± 0.023 | -0.043 ± 0.034 | -0.002 ± 0.042 | 0.0045 ± 0.039 | 0.023 ± 0.016 | 0.0465 ± 0.076 | 0.015 ± 0.055 | 0.0185 ± 0.033 | 0.0455 ± 0.012 | -0.0015 ± 0.036 | 0.038 ± 0.025 | 0.052 ± 0.03
CASM3C:CD106/VCAM-1 | -0.022 ± 0.014 | -0.0145 ± 0.019 | -0.0135 ± 0.005 | -0.014 ± 0.0099 | -0.0085 ± 0.0035 | -0.0135 ± 0.021 | 0.012 ± 0.054 | -0.0225 ± 0.0078 | -0.0565 ± 0.029 | -0.009 ± 0.0057 | 0.031 ± 0.057 | 0.041 ± 0.014 | 0.04 ± 0.0085 | -0.0155 ± 0.013 | -0.03 ± 0.0071 | 0.012 ± 0.02 | 0.0125 ± 0.0078 | -0.005 ± 0.0028 | 0.0015 ± 0.0035
HDF3CGF:Proliferation 72hr | 0 ± 0.034 | 0.0055 ± 0.0078 | -0.003 ± 0.0071 | -0.0115 ± 0.013 | -0.054 ± 0.033 | 0.0515 ± 0.098 | -0.018 ± 0.018 | 0.002 ± 0.041 | 0.0505 ± 0.11 | 0.022 ± 0.03 | -0.0415 ± 0.012 | -0.03 ± 0.0042 | 0.066 ± 0.02 | -0.028 ± 0.0085 | 0.0125 ± 0.016 | 0.0225 ± 0.023 | -0.001 ± 0.031 | 0.0325 ± 0.044 | -0.053 ± 0.031
HDF3CGF:MMP-1 | 0.0095 ± 0.012 | -0.008 ± 0.024 | -0.0095 ± 0.022 | -0.0235 ± 0.044 | -0.0105 ± 0.012 | 0.0025 ± 0.00071 | 0.0065 ± 0.005 | -0.0165 ± 0.013 | -0.0215 ± 0.0021 | -0.0215 ± 0.011 | 0.0005 ± 0.0021 | -0.0025 ± 0.0035 | 0.0075 ± 0.021 | -0.01 ± 0.011 | 0 ± 0.0071 | -0.0035 ± 0.021 | -0.0055 ± 0.0092 | -0.0115 ± 0.023 | -0.006
MyoF:PAI-I | -0.0015 ± 0.013 | -0.0035 ± 0.015 | -0.001 ± 0.0042 | -0.0005 ± 0.012 | 0 ± 0.016 | -0.0215 ± 0.023 | 0.0025 ± 0.018 | -0.0035 ± 0.00071 | 0.005 ± 0.0071 | 0.0075 ± 0.0021 | -0.0105 ± 0.019 | -0.023 ± 0.023 | -0.0095 ± 0.011 | 0.0045 ± 0.016 | -0.001 ± 0.0014 | 0.0025 ± 0.0035 | -0.008 ± 0.0099 | -0.008 ± 0.017 | 0.0025 ± 0.0078
3C:CCL2/MCP-1 | -0.0115 ± 0.0064 | -0.0125 ± 0.025 | 0.0045 ± 0.035 | 0.0135 ± 0.0078 | 0.0015 ± 0.015 | -0.009 ± 0.013 | 0.032 ± 0.045 | -0.0105 ± 0.00071 | 0.0005 ± 0.0021 | 0.0215 ± 0.019 | -0.02 ± 0.061 | -0.006 ± 0.05 | 0.0215 ± 0.03 | -0.0125 ± 0.0064 | -0.0095 ± 0.00071 | 0.0165 ± 0.0064 | 0.0005 ± 0.018 | 0.009 ± 0.0028 | 0.0145 ± 0.05
BE3C:PAI-I | -0.0175 ± 0.0035 | -0.0075 ± 0.013 | -0.015 ± 0.044 | -0.05 ± 0.011 | 0.007 ± 0.0028 | 0.027 ± 0.0057 | 0.042 ± 0.021 | -0.021 ± 0.0071 | -0.02 ± 0.0057 | 0.015 ± 0.057 | -0.0235 ± 0.025 | -0.014 ± 0.038 | -0.0175 ± 0.023 | -0.012 ± 0.0057 | -0.009 ± 0.018 | 0.012 ± 0.0014 | -0.0105 ± 0.005 | -0.0235 ± 0.0092 | 0.01 ± 0.021
CASM3C:IL-6 | -0.02 ± 0.0057 | 0.007 ± 0.027 | 0.0235 ± 0.09 | 0.0465 ± 0.035 | -0.0135 ± 0.0078 | -0.0205 ± 0.021 | 0.008 ± 0.085 | -0.02 ± 0.028 | -0.028 ± 0.027 | 0.014 ± 0.047 | -0.0125 ± 0.0035 | 0.0045 ± 0.023 | 0.0225 ± 0.021 | -0.001 ± 0.038 | 0 ± 0.044 | 0.0245 ± 0.0078 | -0.017 ± 0.011 | -0.009 ± 0.0014 | 0.0215 ± 0.056
KF3CT:PAI-I | 0 ± 0.035 | -0.011 ± 0.037 | -0.04 | -0.0425 ± 0.023 | -0.043 ± 0.016 | -0.0355 ± 0.012 | -0.013 ± 0.068 | 0.0005 ± 0.021 | -0.003 | 0.004 ± 0.0057 | 0.0015 ± 0.022 | 0.046 ± 0.02 | -0.0075 ± 0.073 | -0.0035 ± 0.0021 | -0.0045 ± 0.0035 | -0.0195 ± 0.026 | -0.015 ± 0.0028 | -0.0095 ± 0.0078 | -0.002 ± 0.0099
